Source: US20240058324A1, “COMPOSITION FOR PREVENTION AND TREATING DEMENTIA THROUGH THE COMBINATION OF PDE5 INHIBITORS AND GLUCOCORTICOID RECEPTOR ANTAGONISTS” (ARIBIO CO., LTD., priority 2021, published 2024)

Legend:
Aβ42 = assay: Amyloid Beta 42 Human ELISA, amount of Aβ42 in RA-differentiated SH-SY5Y cells treated with Aβ1-42 oligomer; format: cell-based; settings: 24 h
Protocol: To determine the amount of change in amyloid beta, […] cells were dispensed into T-25 flask.
For cell adhesion and stabilization, cells were incubated for 24 hours in DMEM/F12 Complete Medium (HyClone) containing 10% FBS (HyClone) and 1% P/S (HyClone) at 37° C. under 5% CO2 condition in a CO2 incubator (Thermo Fisher Scientific Forma).
After 24 hours of cell dispensing, the cell culture medium is removed for neuron-like differentiation, and replaced with DMEM/F12 differentiation media containing 1% FBS (HyClone), 1% P/S (HyClone), 10 μM all-trans-retinoic acid (RA; Sigma--Aldrich, St. Louis, MO, USA).
On the third day of differentiation, the medium was replaced with a new DMEM/F12 differentiation medium. On the sixth day of differentiation, the medium of the untreated control group was replaced with a new DMEM/F12 differentiation medium and the medium of the sample treatment group was replaced with a various conditions by adding a new DMEM/F12 differentiation medium under various conditions.
Human Aβ1-42 (Abeam, Cambridge, MA, USA) was added upto 10 μM to DMEM/F12 Complete Medium (HyClone) containing 1% FBS (HyClone) and 1% P/S (HyClone) to form Aβ1-42 oligomer and left for 3 hours in a CO2 incubator (Thermo Fisher Scientific Forma) under 37° C. and 5% CO2 conditions to form Aβ1-42 oligomer.
In order to confirm the Aβ 1-42 change, the existing cell culture medium was removed from the RA-differentiated SH-SY5Y neuron-like cells, replaced with DMEM/F12 Complete Medium (HyClone) containing Aβ1-42 oligomer ([…] Fisher Scientific Forma) at 37° C. under 5% CO2 conditions to induce Aβ1-42 oligomer-induced cell damage.
In order to measure the amount of Aβ42 (pg/mL) in the cell, the cells were recovered and treated with the cell lysis buffer.
Thereafter, after centrifugation at 14,000 rpm 4° C. for 10 minutes, the supernatant was transferred to recover the protein. The amount of protein was quantified using the Pierce™ BCA Protein Assay Kit (Thermo Fisher Scientific). Then, the amount of Aβ42 in cells was measured using a Human Aβ42 ELISA Kit (Invitrogen).

IL-1β = assay: Real time RT-qPCR of pro-inflammatory cytokine IL-1β in LPS-treated IMG microglia cells; format: cell-based, mouse; settings: LPS 100 ng/ml
Protocol: (§1) The IMG cells, a mouse microglia cell line used in the experiments, were cultured, and maintained in DMEM complete medium (HyClone) containing 10% fetal bovine serum (FBS; Australian Orgin, HyClone, Logan, UT, USA) and 1% penicillin/streptomycin (P/S; HyClone) at 37° C. with 5% CO2 in a humidified CO2 incubator (311-TIF, Thermo Fisher Scientific Forma, MA, USA). Total 2×10^5 cells were seeded in each well of the 6-well plate and they were incubated for 24 h in the humidified CO2 incubator as mentioned above. Further, 100 ng/ml of LPS and the drugs, AR1001 2 μM and GR modulator (CORT-108297) 6, 12, 24, 36, 48 μM were treated individually or in combination.
(§2) The cells were scraped using a cell scraper, and 2 mL of the culture solution was collected in a 15 mL conical tube, It was centrifuged at 3,000 RPM for 5 min and the supernatant (culture solution) was discarded. The pellet was resuspended in 1 mL of Trizol and it was transferred to 1.5 mL microfuge tube. Further, 0.2 mL of chloroform was added and it was vortexed for 1 min. The microfuge tube was kept in a stand for 2 min at room temperature. After centrifugation at 12,000×g for 10 min at 4° C., the supernatant (approx 500 μL) separated in a fresh microfuge tube. Equal volume of isopropanol was added to the supernatant and mixed the solution well. It was put in the microfuge tube stand for 10 min at room temperature and thereafter, centrifuged at 12,000×g for 10 min at 4° C. The supernatant was discarded and the pellet was washed twice with 75% ethanol. The RNA pellet was dried and dissolved in 10 μL DEPC treated water. After quantification of the RNA, it was converted to cDNA following the PrimeScript™ II 1st strand cDNA Synthesis Kit (Takara) protocol.
(§3) The sample cDNAs were amplified with gene specific primers and SYBR green PCR master mix (ThermoFisher) in the model Quant Studio 5 Thermal cycler (Applied biosystems). The amplification conditions were as follows—polymerase activation at 50° C. for 2 min, predenaturation preceding at 95° C. for 10 min, total 40 cycles of denaturation at 95° C. for 15 sec, annealing at 60° C. for 30 sec and extension at 72° C. for 30 sec. The specific primer sequences are mentioned in Table-1.

TNF-α = assay: Real time RT-qPCR of pro-inflammatory cytokine TNF-α in LPS-treated IMG microglia cells; format: cell-based, mouse; settings: LPS 100 ng/ml
Protocol: as §1, §2, §3

[1] = CORT-108297 0.1 μM alone, SH-SY5Y, Aβ 10 μM
[2] = CORT-108297 0.3 μM alone, SH-SY5Y, Aβ 10 μM
[3] = CORT-108297 0.6 μM alone, SH-SY5Y, Aβ 10 μM
[4] = CORT-108297 1.2 μM alone, SH-SY5Y, Aβ 10 μM
[5] = CORT-108297 1.8 μM alone, SH-SY5Y, Aβ 10 μM
[6] = CORT-108297 2.4 μM alone, SH-SY5Y, Aβ 10 μM
[7] = CORT-108297 3.0 μM alone, SH-SY5Y, Aβ 10 μM

Structure (SMILES): CCCOc1ccc(S(=O)(=O)N2CCN(CCO)CC2)cc1-c1nc2c(CCC)cn(CC)c2c(=O)[nH]1 [AR1001, mirodenafil]
- Aβ42 concentration Average concentration (Aβ42; AR1001 0.1 μM alone, SH-SY5Y neuron-like cells, Aβ1-42 oligomer 10 μM): 46.45 pg/mL
- Aβ42 Reduction rate Average reduction rate (Aβ42; AR1001 0.1 μM alone, SH-SY5Y, Aβ 10 μM): 1.77%
- IL1β Reduction (%) (IL-1β; AR1001 2 μM alone): 4.70%
- TNFα Reduction (%) (TNF-α; AR1001 2 μM alone): 8.58%

Structure (SMILES): CCOC[C@]12Cc3cnn(-c4ccc(F)cc4)c3C=C1CCN(S(=O)(=O)c1ccc(C(F)(F)F)cc1)C2 [CORT-108297]
- Aβ42 Reduction rate Average reduction rate (Aβ42; [1]): 4.26%
- Aβ42 concentration Average concentration (Aβ42; [1]): 45.40 pg/mL
- Aβ42 Reduction rate Average reduction rate (Aβ42; [2]): 4.24%
- Aβ42 concentration Average concentration (Aβ42; [2]): 45.40 pg/mL
- Aβ42 Reduction rate Average reduction rate (Aβ42; [3]): 6.88%
- Aβ42 concentration Average concentration (Aβ42; [3]): 44.29 pg/mL
- Aβ42 Reduction rate Average reduction rate (Aβ42; [4]): 9.34%
- Aβ42 concentration Average concentration (Aβ42; [4]): 43.25 pg/mL
- Aβ42 Reduction rate Average reduction rate (Aβ42; [5]): 11.97%
- Aβ42 concentration Average concentration (Aβ42; [5]): 42.14 pg/mL
- Aβ42 Reduction rate Average reduction rate (Aβ42; [6]): 17.91%
- Aβ42 concentration Average concentration (Aβ42; [6]): 39.64 pg/mL
- Aβ42 Reduction rate Average reduction rate (Aβ42; [7]): 31.34%
- Aβ42 concentration Average concentration (Aβ42; [7]): 33.97 pg/mL
- IL1β Reduction (%) (IL-1β; CORT-108297 6 μM alone): 7.02%
- IL1β Reduction (%) (IL-1β; CORT-108297 12 μM alone): 8.38%
- IL1β Reduction (%) (IL-1β; CORT-108297 24 μM alone): 17.88%
- IL1β Reduction (%) (IL-1β; CORT-108297 36 μM alone): 35.86%
- IL1β Reduction (%) (IL-1β; CORT-108297 48 μM alone): 57.37%
- TNFα Reduction (%) (TNF-α; CORT-108297 6 μM alone): 9.41%
- TNFα Reduction (%) (TNF-α; CORT-108297 12 μM alone): 15.52%
- TNFα Reduction (%) (TNF-α; CORT-108297 24 μM alone): 23.86%
- TNFα Reduction (%) (TNF-α; CORT-108297 36 μM alone): 37.30%
- TNFα Reduction (%) (TNF-α; CORT-108297 48 μM alone): 52.51%
